Results on 21 molecules are retold here after US4602017A, “Substituted aromatic compounds” (priority 1979, dated 1986).

Like-named read-outs stand apart in the source and are kept apart here.

One data set in a line: LD50 in mice, p.o. To be noted: mouse, in vivo, po, dose for which 50% of the animals survive 10 days after administration. How it is done: (§1) The LD50's (expressed in mg/kg, p.o.) of 3,5-diamino-6-(2,3-dichlorophenyl)-1,2,4-triazine and 3,5-diamino-6-(2,5-dichlorophenyl)-1,2,4,-triazine were determined in mice and rats. The LD50 described is the dose for which 50% of the animals survive 10 days after administration of the compound.

The next data set in a line: LD50 in rats, p.o. To be noted: rat, in vivo, po, dose for which 50% of the animals survive 10 days after administration. How it is done:
as §1

Data set [1] is described as follows: anticonvulsant activity, standard maximal electroshock test (MES). The format is in vivo, mice. To be noted: Mus musculus, po, read-out: ED50, MES. How it is done:
The anticonvulsant activity of certain compounds of the present invention was determined by a standard maximal electroshock test, that described by L. A. Woodbury and V. D. Davenport, Arch. Int. Pharmacodyn.: 1952, 92, 97.

For data set [2] the following is noted: Rosenberg and Bottiroli, Proc. Soc. Exp. Biol. 1964; cited from earlier work.
The test system of the next data set is Plasmodium berghei. To be noted: Plasmodium berghei in mice; Rees et al, J. Med. Chem., 1972 15, 859; cited from earlier work.
For data set [3] the following is noted: cited from earlier work; for toxicity: J. Med. Chem., 1972 15, 859.
The mark [4] stands for this setting: mice, p.o., maximal electroshock, Table 3.
Setting [5] is: mice, p.o., maximal electroshock, Table 4 (naphthyl compounds).

For `Nc1nnc(-c2cc(Cl)ccc2Cl)c(N)n1` [2,5-Cl2 NH2, 3,5-diamino-6-(2,5-dichlorophenyl)-1,2,4-triazine], the LD50 at 240 h in “LD50 in mice, p.o.” is 708 mg/kg; in “LD50 in rats, p.o.” it was greater than 640 mg/kg. The ED50 in data set [1] (setting [4]) is 3.3 mg/kg.

On to `Nc1nnc(-c2cccc3ccccc23)c(N)n1` [H, 3,5-diamino-6-(1-naphthyl)-1,2,4-triazine], for which the ED50 in data set [1] (setting [5]) is 2.9 mg/kg.

Regarding `CCN(CCO)CCCC(C)Nc1ccnc2cc(Cl)ccc12` (stereo not drawn) [hydroxychloroquine], the anticonvulsant activity profile result in data set [2] was “favourable activity profile”.

`CN(C)C=Nc1nc(N)nnc1-c1cccc(Cl)c1Cl.O=C(O)C(=O)O` [2,3-Cl2 NCHNMe2, 3-amino-6-(2,3-dichlorophenyl)-5-dimethylaminomethyleneamino-1,2,4-triazine oxalate]: in data set [1] (setting [4]), the ED50 was 5 mg/kg.

Take `Nc1nnc(-c2ccc(Cl)cc2)c(N)n1` [4-chlorophenyl]: the antimalarial activity entry in the data set with Plasmodium berghei is reported as “active against the malaria organism Plasmodium berghei in mice”. Besides, the toxicity entry in data set [3] (Rees et al) is “toxic at curative doses”. For the same molecule, the therapeutic ratio result in data set [3] (malaria, Rees et al) is “low therapeutic ratio”.

As to `Nc1nnc(-c2c(F)cccc2Cl)c(N)n1` [2-Cl, 6-F NH2, 3,5-diamino-6-(2-chloro-6-fluorophenyl)-1,2,4-triazine], the ED50 in data set [1] (setting [4]) turned out to be 12.2 mg/kg.

As for `Nc1nnc(-c2cc(Cl)cc(Cl)c2Cl)c(N)n1` [2,3,5-Cl3 NH2, 3,5-diamino-6-(2,3,5-trichlorophenyl)-1,2,4-triazine], the ED50 in data set [1] (setting [4]) came to 0.65 mg/kg.

For `Nc1nnc(-c2cc(Cl)ccc2Br)c(N)n1` [2-Br, 5-Cl NH2, 3,5-diamino-6-(2-5-chlorophenyl)-1,2,4-triazine], in data set [1] (setting [4]), the ED50 was found to be 4.6 mg/kg.

With `Cc1ccccc1-c1nnc(N)nc1N` [2-Me NH2, 3,5-diamino-6-(2-methylphenyl)-1,2,4-triazine], the ED50 in data set [1] (setting [4]) was 15 mg/kg.

With `Nc1nnc(-c2ccc(Cl)cc2Cl)c(N)n1` [2,4-dichlorophenyl], the antimalarial activity entry with Plasmodium berghei is on record as “only slight antimalarial activity”.

`Nc1nnc(-c2ccccc2C(F)(F)F)c(N)n1` [2-CF3 NH2, 3,5-diamino-6-(2-trifluoromethylphenyl)-1,2,4-triazine]: the ED50 in data set [1] (setting [4]) was determined as 20 mg/kg.

On to `Nc1nnc(-c2cc(Br)ccc2Cl)c(N)n1` [2-Cl, 5-Br NH2, 3,5-diamino-6-(5-bromo-2-chlorophenyl)-1,2,4-triazine], for which the ED50 in data set [1] (setting [4]) turned out to be 6 mg/kg.

As for `Nc1nnc(-c2ccc(Br)cc2Cl)c(N)n1` [2-Cl, 4-Br NH2, 3,5-diamino-6-(4-bromo-2-chlorophenyl)-1,2,4-triazine], the ED50 in data set [1] (setting [4]) was 12.8 mg/kg.

Regarding `CC(=O)Nc1nc(N)nnc1-c1cccc(Cl)c1Cl` [2,3-Cl2 NHCOCH3, 5-acetamido-3-amino-6-(2,3-dichlorophenyl)-1,2,4-triazine], the ED50 in data set [1] (setting [4]) amounted to 5 mg/kg.

Regarding `Nc1nnc(-c2ccccc2I)c(N)n1` [2-I NH2, 3,5-diamino-6-(2-iodophenyl)-1,2,4-triazine], the ED50 in data set [1] (setting [4]) worked out at 11.8 mg/kg.

With `Nc1nnc(-c2cccc(Cl)c2Cl)c(N)n1` [2,3-Cl2 NH2, 3,5-diamino-6-(2,3-dichlorophenyl)-1,2,4-triazine], the LD50 at 240 h in the data set “LD50 in mice, p.o.” is 250 mg/kg; in the data set “LD50 in rats, p.o.”, greater than 640 mg/kg. The ED50 in data set [1] came to 2.4 mg/kg.

As for `Nc1nnc(-c2ccc(Cl)c(Cl)c2)c(N)n1` [3,4-dichlorophenyl], the antimalarial activity result with Plasmodium berghei was “active against the malaria organism Plasmodium berghei in mice”. Further, in data set [3] (Rees et al), the toxicity entry was “toxic at curative doses”. For the same molecule, in data set [3] (mouse, in vivo), the therapeutic ratio entry is “low therapeutic ratio”.

Regarding `Cc1ccc2ccccc2c1-c1nnc(N)nc1N` [2-Me, 3,5-diamino-6-(2-methyl-1-naphthyl)-1,2,4-triazine], the ED50 in data set [1] (setting [5]) was 16.5 mg/kg.

On to `Nc1nnc(-c2ccccc2Br)c(N)n1` [2-Br NH2, 3,5-diamino-6-(2-bromophenyl)-1,2,4-triazine], for which the ED50 in data set [1] (setting [4]) turned out to be 8.5 mg/kg.

As to `Nc1nnc(-c2cc(Cl)cc3ccccc23)c(N)n1` [3-Cl, 3,5-diamino-6-(3-chloro-1-naphthyl)-1,2,4-triazine], in data set [1] (setting [5]), the ED50 is 6.5 mg/kg.

With `Nc1nnc(-c2ccc(C(F)(F)F)cc2)c(N)n1` [4-trifluoromethylphenyl], the antimalarial activity result in the data set with Plasmodium berghei is on record as “still being active against malaria”. Further, the toxicity entry in data set [3] (Rees et al) is “less toxic than the chlorophenyl compounds”.
